Laboratory results: patent US11795169B2, “MAP4K4 inhibitors” (IMPERIAL COLLEGE INNOVATIONS LIMITED, priority 2017, dated 2023)
In brackets after ≈: the same amount, converted by molar mass. Read-outs that look alike come from different tables or passages of the source.

Tests used:
[1] = Plasma protein binding (PPB); type: in vitro ADME; conditions: for fraction unbound: plasma
[2] = target: human MAP4K4 kinase domain (Homo sapiens (Human), UniProt O95819); test: MAP4K4 kinase activity, CisBio HTRF Transcreener ADP assay; type: biochemical
Outline: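 Kinase activity followed by HTRF Transcreener ADP detection: enzyme-generated ADP competes with d2-labelled ADP for Eu3+-cryptate anti-ADP antibody, read ratiometrically at 665/620 nm. IC50 values reported as categories.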

[3] = system: CorV.4U cardiomyocytes (hiPSC-CMs); test: Protection of CorV.4U cardiomyocytes from H2O2 or menadione (luminescent cell viability assay, human cardiac troponin assay); type: cell-based; conditions: for EC50: Homo sapiens, Cardiomyocyte
Description: To substantiate the hypothesis that pharmacological inhibition of MAP4K4 would confer resistance to cell death in human cardiomyocytes, cytoprotection was next assessed using hiPSC-CMs.

[4] = Resistance to degradation in hepatocyte microsomes (Heps); type: in vitro ADME
Cyp = Cyp Inhibition; type: in vitro ADME
[5] = system: mice undergoing experimental myocardial infarction; test: Experimental myocardial infarction in mice (infarct size, TUNEL staining); type: in vivo; conditions: for In vivo efficacy (infarct size/area at risk), reduction: mice, experimental myocardial infarction; for reduction in infarct size as a proportion of the area at ischemic risk: 50 mg kg−1 twice by gavage
Experimental: To test if target validation and compound development in hiPSC-CMs might predict success in a whole-animal context, mice undergoing experimental myocardial infarction were treated with Ex-58 or the vehicle control (FIG. 9). […] Treatment was begun either 20 min prior to ischemia (FIG. 9D), or 1 h after reperfusion injury (FIG. 9E, F), the latter having greater relevance to potential clinical benefits.

Cyp 2C9 = Cyp 2C9 (Homo sapiens (Human), UniProt P11712); test: Cyp Inhibition: 2C9; type: in vitro ADME
H9c2 cardiomyocytes = test: Protection of H9c2 cardiomyocytes; type: cell-based; conditions: for EC50: Rattus norvegicus, H9c2
Formulated solubility = type: physicochemical
KHS/MAP4K5 = KHS/MAP4K5 (Homo sapiens (Human), UniProt Q9Y4K4); test: Kinase selectivity panel: KHS/MAP4K5; type: biochemical
Description: (§1) Compounds of the present invention were screened for their inhibitory activity against MAP4K4, versus selected off-target hits found with early members of this chemical series. MAP4K4 kinase activity was monitored using the CisBio HTRF Transcreener ADP assay, acompetitive immunoassay with a reproducible Z′>0.6. In the detection step, endogenous ADP and d2-labeled ADP compete for binding an anti-ADP monoclonal antibody labelled with Eu^3+ cryptate. A ratiometric fluorescent read-out is used at 665 and 620 nm. […] Assays were run in Greiner low volume plates with a final reaction volume of 10 μl. The MAP4K4 inhibition data are provided in Table 33 below for selected compounds of the present invention. The data has been categorised based on the IC50 value of the compound as “A”, “B” or “C”.
(§2) The data in Table 34 also provides the fold selectivity of the two compounds in favour of MAP4K4 over the tested kinase. The fold selectivity is indicated in parenthesis.

MLK1/MAP3K9 = MLK1/MAP3K9 (Homo sapiens (Human), UniProt P80192); test: Kinase selectivity panel: MLK1/MAP3K9; type: biochemical
Description: as §1, §2

NUAK = test: Kinase selectivity panel: NUAK; type: biochemical
Experimental: (§3) In the detection step, endogenous ADP and d2-labeled ADP compete for binding an anti-ADP monoclonal antibody labelled with Eu^3+ cryptate. […] Assays were run in Greiner low volume plates with a final reaction volume of 10 μl.
(§4) The fold selectivity is indicated in parenthesis.

Aurora B = Aurora B (Homo sapiens (Human), UniProt Q96GD4); test: Kinase selectivity panel: Aurora B; type: biochemical
Description: as §1, §2

GSK3β = GSK3β (Homo sapiens (Human), UniProt P49841); test: Kinase selectivity panel: GSK3β; type: biochemical
Description: as §1, §2

FLT3 = FLT3 (Homo sapiens (Human), UniProt P36888); test: Kinase selectivity panel: FLT3; type: biochemical
Description: as §1, §2

[6] = Pharmacokinetics in mice (IV and oral)
ABL1 = ABL1 (Homo sapiens (Human), UniProt P00519); test: Kinase selectivity panel: ABL1; type: biochemical
Description: as §1, §2

CorV.4U hiPSC-CMs = test: Mitochondrial function in CorV.4U hiPSC-CMs after acute oxidative stress (menadione); type: cell-based, human; conditions: 10 μM compound, 15 μM menadione for 2 h
Experimental: Key aspects of mitochondrial function were monitored in CorV.4U hiPSC-CMs after acute oxidative stress (15 μM menadione for 2 h), with or without Ex-58 (FIG. 8A).

hiPSC-CMs = test: Calcium cycling in hiPSC-CMs (Fura-2) under menadione; type: cell-based, human
Experimental: Calcium cycling, a hallmark of the cardiac phenotype, likewise is susceptible to redox- and phosphorylation-dependent abnormalities. To determine whether MAP4K4 inhibition might preserve calcium homeostasis, hiPSC-CMs were assessed using the intracellular calcium indicator, Fura-2 (FIG. 8B). […] At 50 μM menadione, spontaneous calcium oscillations persisted in only 8 of 24 cultures (33.3%), versus 21 of 24 receiving 10 μM Ex-58 (87.5%; P<0.001).

GLK/MAP4K3 = GLK/MAP4K3 (Homo sapiens (Human), UniProt Q8IVH8); test: Kinase selectivity panel: GLK/MAP4K3; type: biochemical
Description: as §1, §2

VEGFR = test: Kinase selectivity panel: VEGFR; type: biochemical
Experimental: as §3, §4

[7] = mouse, in vivo, po, 50 mg/kg
TNIK/MAP4K7 = TNIK/MAP4K7 (Homo sapiens (Human), UniProt Q9UKE5); test: Kinase selectivity panel: TNIK/MAP4K7; type: biochemical
Description: as §1, §2

MINK1/MAP4K6 = MINK1/MAP4K6 (Homo sapiens (Human), UniProt Q8N4C8); test: Kinase selectivity panel: MINK1/MAP4K6; type: biochemical
Description: as §1, §2

GCK/MAP4K2 = GCK/MAP4K2 (Homo sapiens (Human), UniProt Q12851); test: Kinase selectivity panel: GCK/MAP4K2; type: biochemical
Description: as §1, §2

MLK3/MAP3K11 = MLK3/MAP3K11 (Homo sapiens (Human), UniProt Q16584); test: Kinase selectivity panel: MLK3/MAP3K11; type: biochemical
Description: as §1, §2

[8] = human, read-out: Human PPB % (converted)
[9] = mouse, read-out: Mouse PPB % (converted)
[10] = H2O2 as death trigger, read-out: Protection in human iPSC-derived ventricular cardiomyocytes, EC50 H202

Sequence of human MAP4K4 kinase domain (O95819 25-289): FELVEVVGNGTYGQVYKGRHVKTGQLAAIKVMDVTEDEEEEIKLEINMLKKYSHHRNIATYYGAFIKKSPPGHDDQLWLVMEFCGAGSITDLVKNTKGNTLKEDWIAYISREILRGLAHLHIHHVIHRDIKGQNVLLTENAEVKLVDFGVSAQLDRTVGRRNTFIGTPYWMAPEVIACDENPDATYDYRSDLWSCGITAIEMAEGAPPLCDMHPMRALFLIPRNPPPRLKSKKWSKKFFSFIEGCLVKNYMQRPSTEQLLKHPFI
Sequence of MLK1/MAP3K9 (P80192 whole entry): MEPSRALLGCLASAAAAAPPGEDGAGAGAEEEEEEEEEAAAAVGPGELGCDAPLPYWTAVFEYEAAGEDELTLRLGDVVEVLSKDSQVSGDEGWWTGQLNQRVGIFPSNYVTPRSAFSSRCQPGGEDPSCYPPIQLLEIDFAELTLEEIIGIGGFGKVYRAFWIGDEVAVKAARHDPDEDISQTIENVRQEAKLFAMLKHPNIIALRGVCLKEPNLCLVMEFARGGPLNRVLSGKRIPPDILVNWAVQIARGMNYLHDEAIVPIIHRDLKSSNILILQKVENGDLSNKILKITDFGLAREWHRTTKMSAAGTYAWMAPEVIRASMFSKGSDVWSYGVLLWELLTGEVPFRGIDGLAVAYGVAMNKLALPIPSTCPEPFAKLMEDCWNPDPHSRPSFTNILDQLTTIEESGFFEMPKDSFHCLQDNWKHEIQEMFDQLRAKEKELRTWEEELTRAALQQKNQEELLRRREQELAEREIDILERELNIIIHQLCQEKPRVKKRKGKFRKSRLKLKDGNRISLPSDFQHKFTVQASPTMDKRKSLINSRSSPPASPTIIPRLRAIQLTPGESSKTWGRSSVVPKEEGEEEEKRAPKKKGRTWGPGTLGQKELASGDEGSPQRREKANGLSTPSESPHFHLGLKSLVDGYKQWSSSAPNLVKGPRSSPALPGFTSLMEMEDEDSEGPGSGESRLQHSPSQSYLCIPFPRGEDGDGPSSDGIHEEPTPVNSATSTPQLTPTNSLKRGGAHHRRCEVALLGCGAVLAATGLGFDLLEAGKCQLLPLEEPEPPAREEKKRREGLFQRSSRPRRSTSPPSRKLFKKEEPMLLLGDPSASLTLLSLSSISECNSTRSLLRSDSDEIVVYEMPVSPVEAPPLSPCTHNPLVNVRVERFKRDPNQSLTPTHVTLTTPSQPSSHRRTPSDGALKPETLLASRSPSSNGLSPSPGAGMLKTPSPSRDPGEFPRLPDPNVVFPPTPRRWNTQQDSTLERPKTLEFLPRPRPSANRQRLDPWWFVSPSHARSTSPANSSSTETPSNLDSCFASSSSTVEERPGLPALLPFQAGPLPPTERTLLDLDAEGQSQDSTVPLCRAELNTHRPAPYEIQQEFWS
Sequence of KHS/MAP4K5 (Q9Y4K4 whole entry): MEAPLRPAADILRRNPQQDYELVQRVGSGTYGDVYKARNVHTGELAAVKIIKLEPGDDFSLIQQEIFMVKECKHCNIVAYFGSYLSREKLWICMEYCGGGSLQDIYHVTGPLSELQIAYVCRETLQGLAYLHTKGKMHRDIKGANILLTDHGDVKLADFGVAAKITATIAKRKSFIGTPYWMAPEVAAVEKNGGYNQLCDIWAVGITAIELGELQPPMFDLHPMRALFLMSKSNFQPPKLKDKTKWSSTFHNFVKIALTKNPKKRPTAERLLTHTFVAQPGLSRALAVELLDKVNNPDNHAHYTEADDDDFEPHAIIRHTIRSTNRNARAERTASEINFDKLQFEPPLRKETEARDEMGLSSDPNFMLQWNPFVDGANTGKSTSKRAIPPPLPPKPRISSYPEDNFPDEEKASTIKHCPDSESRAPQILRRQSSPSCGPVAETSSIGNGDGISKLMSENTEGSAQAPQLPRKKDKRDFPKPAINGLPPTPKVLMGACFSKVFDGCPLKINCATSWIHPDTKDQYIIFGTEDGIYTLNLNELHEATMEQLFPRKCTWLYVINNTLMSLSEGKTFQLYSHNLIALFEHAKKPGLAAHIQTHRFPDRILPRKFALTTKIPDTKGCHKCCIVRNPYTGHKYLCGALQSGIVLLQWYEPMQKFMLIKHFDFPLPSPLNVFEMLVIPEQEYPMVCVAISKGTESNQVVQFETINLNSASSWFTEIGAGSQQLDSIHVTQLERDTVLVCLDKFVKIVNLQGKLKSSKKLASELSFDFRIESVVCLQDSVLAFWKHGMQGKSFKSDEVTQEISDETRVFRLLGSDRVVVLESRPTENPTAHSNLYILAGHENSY
Sequence of GCK/MAP4K2 (Q12851 whole entry): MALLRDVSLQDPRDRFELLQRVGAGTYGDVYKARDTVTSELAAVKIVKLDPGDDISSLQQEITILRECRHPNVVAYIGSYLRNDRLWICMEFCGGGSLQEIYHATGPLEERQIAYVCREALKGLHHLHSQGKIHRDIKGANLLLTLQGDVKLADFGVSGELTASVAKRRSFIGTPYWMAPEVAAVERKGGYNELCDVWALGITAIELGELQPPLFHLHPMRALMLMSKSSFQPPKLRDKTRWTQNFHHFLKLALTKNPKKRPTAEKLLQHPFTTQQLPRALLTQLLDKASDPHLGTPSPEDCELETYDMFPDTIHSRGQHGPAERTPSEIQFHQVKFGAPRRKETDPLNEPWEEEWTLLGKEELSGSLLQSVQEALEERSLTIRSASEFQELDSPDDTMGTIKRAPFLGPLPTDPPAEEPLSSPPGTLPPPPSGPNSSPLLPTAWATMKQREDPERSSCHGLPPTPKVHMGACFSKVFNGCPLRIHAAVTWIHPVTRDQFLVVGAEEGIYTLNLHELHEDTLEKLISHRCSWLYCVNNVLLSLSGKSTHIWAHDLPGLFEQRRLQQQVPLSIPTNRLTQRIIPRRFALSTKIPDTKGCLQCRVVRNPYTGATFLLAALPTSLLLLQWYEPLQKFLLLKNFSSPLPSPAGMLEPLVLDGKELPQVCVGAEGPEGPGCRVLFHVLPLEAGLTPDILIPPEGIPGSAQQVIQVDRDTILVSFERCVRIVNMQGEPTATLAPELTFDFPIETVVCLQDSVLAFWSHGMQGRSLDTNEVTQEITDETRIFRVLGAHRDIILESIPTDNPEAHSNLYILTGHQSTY
Sequence of Aurora B (Q96GD4 whole entry): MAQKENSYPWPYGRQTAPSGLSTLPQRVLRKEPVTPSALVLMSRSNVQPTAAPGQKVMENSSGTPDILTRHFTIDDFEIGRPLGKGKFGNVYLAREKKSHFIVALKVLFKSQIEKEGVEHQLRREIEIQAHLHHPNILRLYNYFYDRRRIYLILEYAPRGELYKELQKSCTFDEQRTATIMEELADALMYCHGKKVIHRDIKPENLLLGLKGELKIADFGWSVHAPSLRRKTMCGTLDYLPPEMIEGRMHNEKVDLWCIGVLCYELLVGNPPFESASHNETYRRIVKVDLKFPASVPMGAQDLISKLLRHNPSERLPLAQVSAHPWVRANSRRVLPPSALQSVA
Sequence of FLT3 (P36888 27-993, species assumed): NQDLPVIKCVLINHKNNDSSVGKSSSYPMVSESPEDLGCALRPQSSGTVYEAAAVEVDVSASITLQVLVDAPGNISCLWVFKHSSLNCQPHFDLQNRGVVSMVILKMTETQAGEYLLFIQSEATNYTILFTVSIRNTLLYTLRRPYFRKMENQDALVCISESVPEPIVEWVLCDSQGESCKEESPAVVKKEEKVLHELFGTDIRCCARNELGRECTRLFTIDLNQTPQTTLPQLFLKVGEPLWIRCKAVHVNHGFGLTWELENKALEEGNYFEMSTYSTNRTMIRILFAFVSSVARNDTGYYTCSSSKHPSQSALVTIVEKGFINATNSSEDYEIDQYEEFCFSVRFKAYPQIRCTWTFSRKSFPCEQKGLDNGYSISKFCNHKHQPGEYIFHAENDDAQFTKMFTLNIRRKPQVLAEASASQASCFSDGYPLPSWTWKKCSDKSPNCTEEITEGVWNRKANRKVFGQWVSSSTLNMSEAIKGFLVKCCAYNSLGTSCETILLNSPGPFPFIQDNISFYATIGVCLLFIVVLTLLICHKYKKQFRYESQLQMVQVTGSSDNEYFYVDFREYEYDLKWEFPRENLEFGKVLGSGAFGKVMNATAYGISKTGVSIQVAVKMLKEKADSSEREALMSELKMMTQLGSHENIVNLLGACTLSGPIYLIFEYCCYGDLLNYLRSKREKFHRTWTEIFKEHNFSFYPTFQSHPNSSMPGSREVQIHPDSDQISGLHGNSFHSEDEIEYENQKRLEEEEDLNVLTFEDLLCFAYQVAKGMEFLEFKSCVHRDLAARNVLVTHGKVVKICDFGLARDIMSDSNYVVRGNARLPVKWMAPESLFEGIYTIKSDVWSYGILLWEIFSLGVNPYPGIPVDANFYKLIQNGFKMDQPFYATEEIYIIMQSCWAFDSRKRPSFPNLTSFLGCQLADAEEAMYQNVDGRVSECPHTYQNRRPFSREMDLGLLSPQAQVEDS
Sequence of GSK3β (P49841 whole entry, species assumed): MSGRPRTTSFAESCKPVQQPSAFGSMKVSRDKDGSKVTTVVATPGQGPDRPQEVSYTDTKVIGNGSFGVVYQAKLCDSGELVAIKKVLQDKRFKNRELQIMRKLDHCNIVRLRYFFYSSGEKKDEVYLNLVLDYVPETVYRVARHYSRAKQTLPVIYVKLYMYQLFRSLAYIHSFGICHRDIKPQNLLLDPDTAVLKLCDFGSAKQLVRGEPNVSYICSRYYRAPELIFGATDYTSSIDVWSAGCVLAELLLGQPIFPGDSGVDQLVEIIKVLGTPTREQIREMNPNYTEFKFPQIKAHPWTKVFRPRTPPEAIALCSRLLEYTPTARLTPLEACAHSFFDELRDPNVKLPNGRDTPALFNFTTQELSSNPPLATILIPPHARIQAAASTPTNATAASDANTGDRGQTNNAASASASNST

O=c1[nH]cnc2c1c(-c1ccc(OCC3(CO)COC3)cc1)cn2-c1ccccc1 [Ex-54]
plasma protein binding (PPB) relative to Ex-58 [1]: superior | fraction unbound [1, 8]: 0.03 | fraction unbound [1, 9]: 0.03 | IC50 ([2]; read-out: MAP4K4, IC50): 4 nM | Protection in human iPSC-derived ventricular cardiomyocytes, H202, efficacy relative to Ex-58 ([3]; H2O2 as death trigger): (0.9) | EC50 [3, 10]: 469 nM | EC50 ([3]; read-out: EC50, protection of human cardiomyocytes): < 1000 nM | resistance to degradation in hepatocyte microsomes (Heps) relative to Ex-58 [4]: superior | Human Heps [4]: 5 | Mouse Heps [4]: 25 | Pig Heps [4]: 6 | Rat Heps [4]: 3 | Cyp Inhibition (Cyp): >10 µM | In vivo efficacy (infarct size/area at risk), reduction [5]: 53% reduction | infarct size in mice (in words) ([5]; mouse, in vivo): Reduction of infarct size | Cyp Inhibition 2C9 (Cyp 2C9): (2C9 8 μM) | Protection in H9c2 cardiomyocytes, efficacy relative to Ex-58 (H9c2 cardiomyocytes): (0.3) | EC50 (H9c2 cardiomyocytes): 199 nM | solubility (Formulated solubility): 300 µg/mL (≈ 744 µM)

COCCOc1ccc(-c2cn(-c3ccccc3)c3nc[nH]c(=O)c23)cc1 [Ex-58, 5-[4-(2-Methoxy-ethoxy)-phenyl]-7-phenyl-3,7-dihydro-pyrrolo[2,3-d]pyrimidin-4-one]
fold selectivity for MAP4K4 over KHS/MAP4K5 (KHS/MAP4K5): (153) fold | pIC50 KHS/MAP4K5 (KHS/MAP4K5): 6.36 | fold selectivity for MAP4K4 over MLK1/MAP3K9 (MLK1/MAP3K9): (23) fold | pIC50 MLK1/MAP3K9 (MLK1/MAP3K9): 7.19 | fold selectivity for MAP4K4 over NUAK (NUAK): (47) fold | pIC50 NUAK (NUAK): 6.88 | fraction unbound [1, 8]: 0.01 | fraction unbound [1, 9]: 0.02 | fold selectivity for MAP4K4 over Aurora B (Aurora B): (560) fold | pIC50 Aurora B (Aurora B): 5.49 | greater potency than F1386-0303 [2]: 10 fold | pIC50 MAP4K4 [2]: 8.55 | IC50 ([2]; ATP at Km (10 μM), 0.5 nM kinase domain, 2 h, read-out: MAP4K4): ≤ 100 nM | selectivity for MAP4K4 (in words) ([2]; compared to F1386-303, 13 other protein kinases): highly selective | IC50 ([2]; read-out: MAP4K4, IC50): 3 nM | protection of human cardiomyocytes (in words) ([3]; CorV.4U cells, H2O2 and menadione, both viability assays): Protection of human cardiomyocytes was substantiated | Protection in human iPSC-derived ventricular cardiomyocytes, H202, efficacy relative to Ex-58 ([3]; H2O2 as death trigger): (1) | EC50 [3, 10]: 403 nM | fold selectivity for MAP4K4 over GSK3β (GSK3β): (7762) fold | pIC50 GSK3β (GSK3β): 4.66 | Human Heps [4]: ≤10 | Mouse Heps [4]: 85 | Pig Heps [4]: 8 | Rat Heps [4]: 10 | fold selectivity for MAP4K4 over FLT3 (FLT3): (1148) fold | pIC50 FLT3 (FLT3): 5.31 | Cyp Inhibition (Cyp): >10 µM | improvement of free plasma concentration over the earlier compound ([6]; 50 mg kg-1 oral dose, versus F1386-0303): > 80 fold | concentration at 1 h ([6]; mouse, plasma, po, 50 mg kg-1): 334 nM | concentration at 10 h ([6]; mouse, plasma, po, 50 mg kg-1): 8 nM | fold selectivity for MAP4K4 over ABL1 (ABL1): (560) fold | pIC50 ABL1 (ABL1): 5.80 | reduction in infarct size as a proportion of the area at ischemic risk ([5]; begun 20 min prior to ischemia): more than 50% | reduction in infarct size as a proportion of the area at ischemic risk ([5]; begun 1 h after reperfusion injury): > 60% | In vivo efficacy (infarct size/area at risk), reduction [5]: 65% reduction | suppression of cardiomyocyte apoptosis (TUNEL) in the jeopardized adjacent myocardium ([5]; post-injury study): 52% | suppression of cardiomyocyte apoptosis (TUNEL) within the infarct ([5]; post-injury study): 39% | extracellular acidification rate (glycolytic function) (CorV.4U hiPSC-CMs): largely rescued | cultures with persisting spontaneous calcium oscillations (hiPSC-CMs; 10 μM compound, 50 μM menadione, 21 of 24 cultures): 87.5% | adverse effect on functional parameters (hiPSC-CMs; hiPSC-CMs, mitochondrial function and calcium cycling): no adverse effect | fold selectivity for MAP4K4 over GLK/MAP4K3 (GLK/MAP4K3): (3981) fold | pIC50 GLK/MAP4K3 (GLK/MAP4K3): 4.95 | fold selectivity for MAP4K4 over VEGFR (VEGFR): (675) fold | pIC50 VEGFR (VEGFR): 5.72 | AUCinf [7]: 63733 | pIC50 TNIK/MAP4K7 (TNIK/MAP4K7): 7.96 | pIC50 MINK1/MAP4K6 (MINK1/MAP4K6): 8.18 | Protection in H9c2 cardiomyocytes, efficacy relative to Ex-58 (H9c2 cardiomyocytes): (1) | EC50 (H9c2 cardiomyocytes): 350 nM | fold selectivity for MAP4K4 over GCK/MAP4K2 (GCK/MAP4K2): (112) fold | pIC50 GCK/MAP4K2 (GCK/MAP4K2): 6.50 | fold selectivity for MAP4K4 over MLK3/MAP3K11 (MLK3/MAP3K11): (36) fold | pIC50 MLK3/MAP3K11 (MLK3/MAP3K11): 6.99
